Test results: paper PMC4142572 (Bioorganic & medicinal chemistry letters, 2014)

Target: hPDE4B (Homo sapiens, UniProt Q07343)
Assay: Enzymatic inhibition of PDE4B long isoform in vitro
Type: biochemical
Details: for PDE4B-subtype selectivity: enzymatic assays using PDE4B1 and PDE4D7

Sequence of hPDE4B (Q07343 whole entry, canonical isoform): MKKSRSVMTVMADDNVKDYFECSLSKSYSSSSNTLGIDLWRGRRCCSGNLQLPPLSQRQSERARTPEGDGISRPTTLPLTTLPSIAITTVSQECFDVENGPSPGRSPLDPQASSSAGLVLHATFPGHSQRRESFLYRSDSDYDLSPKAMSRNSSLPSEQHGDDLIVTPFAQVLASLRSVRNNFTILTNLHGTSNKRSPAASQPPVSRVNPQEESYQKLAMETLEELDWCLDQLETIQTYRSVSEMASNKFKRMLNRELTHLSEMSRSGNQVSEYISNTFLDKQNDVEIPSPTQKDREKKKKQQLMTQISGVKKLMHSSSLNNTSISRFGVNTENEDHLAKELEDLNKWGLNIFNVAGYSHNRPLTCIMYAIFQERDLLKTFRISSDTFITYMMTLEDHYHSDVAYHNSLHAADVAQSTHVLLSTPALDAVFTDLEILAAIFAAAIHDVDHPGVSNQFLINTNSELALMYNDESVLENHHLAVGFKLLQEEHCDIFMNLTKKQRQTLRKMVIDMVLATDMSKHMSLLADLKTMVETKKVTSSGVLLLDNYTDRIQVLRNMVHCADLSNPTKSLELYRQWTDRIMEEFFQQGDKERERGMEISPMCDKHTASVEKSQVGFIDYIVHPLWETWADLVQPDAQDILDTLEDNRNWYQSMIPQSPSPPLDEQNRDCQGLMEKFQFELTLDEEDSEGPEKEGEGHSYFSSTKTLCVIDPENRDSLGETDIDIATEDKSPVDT

Structure (SMILES) | IC50 [nM] | PDE4B-subtype selectivity
O=C(O)Cc1ccc(Nc2nc(-c3ccc(Cl)cc3)nc(C3CC3)n2)cc1 [Compound 9] | 770 | –
CCc1c(C)nc(-c2ccc(Cl)s2)nc1Nc1ccc(CC(=O)O)cc1 [Compound 2, reference compound] | – | highly selective for PDE4B
CCOc1nc(Nc2ccc(OC)cc2)nc(OCC)n1 [Compound 1] | – | does not show PDE4B-subtype selectivity
